Source: US20120316346A1, “SELENALZOLE DERIVATIVE HAVING LIGAND WHICH ACTIVATES PEROXISOME PROLIFERATOR ACTIVATED RECEPTOR (PPAR), PREPARING METHOD THEREOF AND USAGE OF THE CHEMICAL COMPOUNDS” (SNU R & DB FOUNDATION, priority 2010, published 2012)

Key:
[1] = system: mouse; assay: Muscle endurance test (treadmill) after administration during pregnancy, lactation or both; format: in vivo; conditions: for Body weight or growth rate of the fetus, treated versus control group / Type I muscle fiber (ATPase staining and immunostaining): 10 mg/kg/day oral during pregnancy, lactation or both; for Increase compared to control, Distance / Increase compared to control, Time: treadmill, 10 mg/kg/day oral
Procedure: Animal experiment was carried out in order to test muscle endurance strengthening and muscle function improving effect of the compound according to the present invention. Since muscle formation occurs mostly in the developmental stage, Compound S185 or S186 (10 mg/kg/day) was orally administered to a mouse during pregnancy, lactation or both. No difference in body weight or growth rate of the fetus was observed between the control group and the treated group. When the muscle was observed after removing the skin, the muscle of the treated group was redder than the control group. […] In order to confirm the effect of the change in the muscle fiber on improvement of muscle endurance and muscle function, test was performed using a treadmill.

[2] = target: T1, hPPARγ (Homo sapiens, UniProt P37231); assay: Transfection assay (luciferase reporter, full-length PPAR plasmid) in CV-1 cells, PPARγ selectivity; format: cell-based; conditions: 24 hours
T1 sequence (P37231 1-505): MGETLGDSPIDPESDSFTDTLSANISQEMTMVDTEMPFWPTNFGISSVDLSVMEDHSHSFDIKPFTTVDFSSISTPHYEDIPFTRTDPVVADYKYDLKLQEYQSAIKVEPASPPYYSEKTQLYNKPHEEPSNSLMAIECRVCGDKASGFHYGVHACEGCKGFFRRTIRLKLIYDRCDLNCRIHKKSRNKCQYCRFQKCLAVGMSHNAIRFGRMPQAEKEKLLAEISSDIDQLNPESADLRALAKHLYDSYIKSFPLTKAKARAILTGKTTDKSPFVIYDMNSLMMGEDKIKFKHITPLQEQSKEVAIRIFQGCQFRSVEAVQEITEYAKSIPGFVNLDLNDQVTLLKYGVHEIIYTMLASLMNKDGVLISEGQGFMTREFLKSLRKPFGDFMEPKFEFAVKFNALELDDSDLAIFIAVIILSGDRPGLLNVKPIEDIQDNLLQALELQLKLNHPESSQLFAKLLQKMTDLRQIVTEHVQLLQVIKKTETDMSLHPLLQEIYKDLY
Procedure: (§1) PPARδ activation effect of the compound represented by Chemical Formula I according to the present invention was identified by transfection assay. Further, selectivity test for other PPAR subtypes PPARα and PPARγ, toxicity test by MTT assay, and in vivo activity test through animal experiment were carried out. CV-1 cells were used for transfection assay. The cells were cultured in a 5% CO2 incubator at 37° C., on a 96-well plate using DMEM medium containing 10% FBS, DBS (delipidated) and 1% penicillin/streptomycin. Experiment was performed in four stages of cell inoculation, transfection, treatment with the compound of the present invention, and confirmation of result. The CV-1 cells inoculated onto a 96-well plate at 5,000 cells/well, and transfected 24 hours later. Transfection assay was performed using full-length PPAR plasmid DNA, reporter DNA having luciferase activity and thus capable of identifying PPAR activity, and β-galactosidase DNA which gives information about transfection efficiency. […] After culturing for 24 hours in an incubator, the cells were lysed using lysis buffer, and luciferase and β-galactosidase activity was measured using a luminometer and a microplate reader. The measured luciferase data were corrected using the β-galactosidase data, and were plotted to calculate the EC50 value.

[3] = system: C57BL/6 mouse; assay: Muscle endurance and muscle function in adult exercising mice (treadmill); format: in vivo; conditions: 10-week-old C57BL/6 mouse, 10 mg/kg oral, treadmill exercise 30 days
Procedure: Further, improvement of muscle endurance and muscle function was confirmed when the compound according to the present invention was administered to an adult. 10-week-old C57BL/6 mouse was let to exercise while orally administering Compound S185 or S186 (10 mg/kg). The mouse was let to exercise on a treadmill for 30 days, once a day for 30 minutes. Exercise condition was 5 minutes at 2 m/min, 5 minutes at 5 m/min, 5 minutes at 8 m/min, followed by 5 minutes at 20 m/min. At the end of the test, muscle endurance strengthening and muscle function improving effect was tested using a treadmill.

[4] = system: C57BL/6 mouse; assay: Memory improving effect, Morris water maze test in LPS brain disease model; format: in vivo
Procedure: Animal (8-week-old C57BL/6 mouse) experiment was carried out in order to test the effect of the compound according to the present invention of treating dementia and Parkinson's disease through improvement of memory. Before performing experiment, an animal model of brain disease was established by injecting LPS into the brain by stereotaxy. Test groups were divided depending on the administration of the test compound and exercise. Exercise condition was 5 minutes at 2 m/min, 5 minutes at 5 m/min, 5 minutes at 8 m/min, followed by 5 minutes at 20 m/min. Morris water maze test was performed at the end of the test. It was confirmed that the compound according to the present invention and exercise are effective in treating dementia and Parkinson's disease through improvement of memory.

[5] = Obesity inhibiting effect, high-fat feed mice; format: in vivo, mouse; conditions: C57BL/6 mice, 35% fat feed 60 days, 10 mg/kg/day oral
Procedure: In order to test in vivo effect of the compound according to the present invention, experiment was carried out using mouse. 8-week-old C57BL/6 (SLC Co.) mice were used and feed containing 35% fat was used to induce obesity. While giving the high-fat feed for 60days, vehicle, Compound S185 or Compound S186 was orally administered (10 mg/kg/day).

[6] = target: T2, hPPARδ (Homo sapiens, UniProt Q03181); assay: Transfection assay (luciferase reporter, full-length PPAR plasmid) in CV-1 cells, PPARδ; format: cell-based; conditions: 24 hours
T2 sequence (Q03181 1-441): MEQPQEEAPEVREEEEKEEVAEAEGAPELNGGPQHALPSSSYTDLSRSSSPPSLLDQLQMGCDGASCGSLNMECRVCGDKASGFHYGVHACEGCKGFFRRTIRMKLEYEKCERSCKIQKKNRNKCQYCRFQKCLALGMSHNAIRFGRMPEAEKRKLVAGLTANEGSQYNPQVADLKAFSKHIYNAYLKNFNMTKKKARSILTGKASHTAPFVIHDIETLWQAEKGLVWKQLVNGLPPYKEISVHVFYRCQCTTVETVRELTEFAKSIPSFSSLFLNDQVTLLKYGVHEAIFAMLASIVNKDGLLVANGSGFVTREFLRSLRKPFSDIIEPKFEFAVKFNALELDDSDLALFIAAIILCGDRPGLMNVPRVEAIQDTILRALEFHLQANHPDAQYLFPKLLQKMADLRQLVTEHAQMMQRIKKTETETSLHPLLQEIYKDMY
Procedure: as §1

[7] = Diabetes improving effect, glucose tolerance test (GTT); format: in vivo, mouse; conditions: for Fasting glucose level as compared to the control group: 10 mg/kg/day oral for 57 days; for Diabetes improving effect: GTT, overall conclusion
Procedure: In order to test diabetes improving effect of the compound according to the present invention, glucose tolerance test (GTT) was carried out. To a mouse to which the test compound had been orally administered for 57 days, glucose (1.5 g/kg) was abdominally administered and change of blood glucose level was monitored.

[8] = target: T3, hPPARα (Homo sapiens, UniProt Q07869); assay: Transfection assay (luciferase reporter, full-length PPAR plasmid) in CV-1 cells, PPARα selectivity; format: cell-based; conditions: 24 hours
T3 sequence (Q07869 1-468): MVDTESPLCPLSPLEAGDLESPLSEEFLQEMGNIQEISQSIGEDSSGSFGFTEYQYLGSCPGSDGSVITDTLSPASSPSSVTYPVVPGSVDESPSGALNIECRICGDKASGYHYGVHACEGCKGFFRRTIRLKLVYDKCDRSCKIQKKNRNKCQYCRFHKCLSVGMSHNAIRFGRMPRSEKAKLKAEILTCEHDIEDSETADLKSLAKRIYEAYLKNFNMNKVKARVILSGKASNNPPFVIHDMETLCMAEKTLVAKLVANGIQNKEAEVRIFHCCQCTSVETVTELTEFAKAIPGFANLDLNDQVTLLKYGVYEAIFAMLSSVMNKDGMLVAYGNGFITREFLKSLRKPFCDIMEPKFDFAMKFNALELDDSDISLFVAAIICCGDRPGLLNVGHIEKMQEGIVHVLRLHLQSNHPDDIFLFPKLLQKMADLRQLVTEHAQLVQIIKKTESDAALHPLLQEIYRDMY
Procedure: as §1

[9] = system: ApoE−/− mice; assay: Atherosclerosis inhibiting effect, ApoE−/− mice (Sudan IV arterial plaque staining); format: in vivo; conditions: ApoE−/− mouse, high-fat high-cholesterol feed, 2 mg/kg/day oral, 28 days
Procedure: (§2) In order to test atherosclerosis inhibiting effect of the compound according to the present invention, in vivo experiment was carried out using atherosclerosis animal model ApoE−/−, Ldlr−/−mice. While giving high-fat, high-cholesterol feed (20% fat, 1.25% cholesterol; AIN-93G diet), the compound of the present invention (Compound S185) was orally administered at 2 mg/kg/day. 28 days later, arterial plaque was stained using Sudan IV, and the atherosclerosis inhibiting effect was compared with the control group.

[10] = system: Ldlr−/− mice; assay: Atherosclerosis inhibiting effect, Ldlr−/− mice (Sudan IV arterial plaque staining); format: in vivo; conditions: Ldlr−/− mouse, high-fat high-cholesterol feed, 2 mg/kg/day oral, 28 days
Procedure: as §2

[11] = system: C57BL/6 mouse; assay: Fatty liver treating effect, high-fat feed mice (H&E liver staining); format: in vivo; conditions: 35% fat feed 78 days, 10 mg/kg/day oral
Procedure: Animal (8-week-old C57BL/6 mouse) experiment was carried out in order to test fatty liver treating effect of the compound according to the present invention. Feed containing 35% fat was used to induce fatty liver. While giving the high-fat feed for 78 days, Compound S185 was orally administered (10 mg/kg/day). At the end of the experiment, liver tissue was harvested and fixed in paraformaldehyde solution and then stained with hematoxylin and eosin.

[12] = administered during Pregnancy + lactation

Compound	Body weight or growth rate of the fetus, treated versus control group [1]	Type I muscle fiber (ATPase staining and immunostaining) [1]	Increase compared to control, Distance ([1]; administered during Lactation) [times]	Increase compared to control, Time ([1]; administered during Lactation) [times]	Increase compared to control, Distance [1, 12] [times]	Increase compared to control, Time [1, 12] [times]	Increase compared to control, Distance ([1]; administered during Pregnancy) [times]	Increase compared to control, Time ([1]; administered during Pregnancy) [times]	EC50 hPPARγ [2]	Exercise time and distance as compared to the control group [3]	Water maze test result ([4]; Exercise (o)) [s]	Water maze test result ([4]; Exercise (x)) [s]	Body weight increase as compared to the vehicle group [5] [%]	EC50 [6] [nM]	Fasting glucose level as compared to the control group [7]	Diabetes improving effect [7]	EC50 hPPARα [8]	Atherosclerosis inhibiting effect improved as compared to the control group [9] [%]	Atherosclerosis inhibiting effect improved [10] [%]	Fatty liver treating effect (H&E stained liver tissue, FIG. 1) [11]
Cc1cc([Se]Cc2[se]c(-c3ccc(C(F)(F)F)cc3)nc2C)ccc1OCC(=O)O [Compound S186]	No difference	increased type I muscle fiber	2.0	1.8	3.3	3.1	2.1	2.1	ia	improvement both in exercise time and distance	16	27	42	4.27	lower fasting glucose level	effective in improving diabetes	ia	–	–	–
Cc1cc(SCc2[se]c(-c3ccc(C(F)(F)F)cc3)nc2C)ccc1OCC(=O)O [Compound S185]	No difference	increased type I muscle fiber	2.6	2.1	3.9	3.7	2.7	2.3	ia	improvement both in exercise time and distance	14	20	39	0.66	lower fasting glucose level	effective in improving diabetes	ia	60	36	effective in preventing fatty liver
